Data on one compound can be found in patent US12480848B2, “Crack sensor, preparation method therefor, and application thereof in micro-force measurement” (QILU UNIVERSITY OF TECHNOLOGY (SHANDONG ACADEMY OF SCIENCES), priority 2022, dated 2025).

The subject of the experiment is cardiomyocytes (CM). Description: Drug evaluation: CM contractility (contractile force, beating rate) measured with the Ag/CNT-PDMS crack sensor. As to conditions: for EC50: Cardiomyocyte.

Like-named read-outs stand apart in the source and are kept apart here.

By EC50 is commonly meant the concentration that produces a half-maximal response. On to `CC(C)NCC(O)c1ccc(O)c(O)c1` (stereo not shown) [isoproterenol], for which the EC50 amounted to 71.4 nM (read-out: apparent EC50 of CM beating rate (dose-response curve)) and 92.6 nM (read-out: apparent EC50 of CM contractile force (dose-response curve)). For the same compound, the “contractile force and beating rate” value (concentration increased from 0.1 nM to 1 μM) is reported as “gradually increased”. Further, for the setting “when the concentration reached 100 nM”, the CM contractility result is listed as “became saturated”.
